From patent US20260085280A1, “ADAPTATION AND PROCESS OPTIMIZATION OF MICROORGANISMS FOR GROWTH IN HEMICELLULOSIC DERIVED CARBOHYDRATES” (MARA RENEWABLES CORPORATION, priority 2018, published 2026)

Experiments:
[1] = test system: Gxs1 7-7; assay: xylose depletion flask assay, medium spiked with increasing concentrations of xylitol; format: cell-based, Thraustochytrium species (ONC-T18); conditions: 20 g/L xylose and 8 g/L glucose; for Biomass / Xylose used / Xylose used (%): after 144 hours
Method: The impact of xylitol concentration on glucose and xylose consumption was determined using 7-7, Gxs1 7-7, and 51-7 strains. […] In xylose depletion flask assays, Gxs1 7-7 was used with medium containing 20 g/L xylose and 8 g/L glucose and spiked with increasing concentrations of xylitol as shown in Table 4. The values in Table 4 are the total amount of biomass produced and xylose used after 144 hours. The glucose used amounts are shown at 48 hours.

[2] = test system: 7-7, Gxs1 7-7, and 51-7 strains; assay: impact of xylitol concentration on glucose and xylose consumption; format: cell-based, Thraustochytrium species (ONC-T18); conditions: FIGS. 2A-2D and Table 4
Method: The impact of xylitol concentration on glucose and xylose consumption was determined using 7-7, Gxs1 7-7, and 51-7 strains.

## OC[C@@H](O)[C@H](O)[C@@H](O)CO [Xylitol, xylitol]
[1]; 1 g L^−1 xylitol
  Glucose used (%) @48 hr: 99.9%
  Glucose used (g) @48 hr: 9.04 g
  Biomass: 7.225 g/L
  Xylose used: 11.03 g
  Xylose used (%): 56.2%
[1]; 5 g L^−1 xylitol
  Glucose used (%) @48 hr: 43.7%
  Glucose used (g) @48 hr: 3.99 g
  Biomass: 6.683 g/L
  Xylose used: 5.06 g
  Xylose used (%): 25.5%
[1]; 10 g L^−1 xylitol
  Glucose used (%) @48 hr: 18.6%
  Glucose used (g) @48 hr: 1.66 g
  Biomass: 6.425 g/L
  Xylose used: 4.24 g
  Xylose used (%): 22.0%
[1]; 15 g L^−1 xylitol
  Glucose used (%) @48 hr: 12.8%
  Glucose used (g) @48 hr: 1.13 g
  Biomass: 6.592 g/L
  Xylose used: 3.67 g
  Xylose used (%): 19.3%
[2]
  xylitol concentration to be kept in order to avoid growth inhibition: lower than 1 g/L
